# From patent US8580854B2, “Methods of suppression of rage gene expression and rage triggered inflammatory genes by selected age-inhibitors” (City of Hope, priority 2005, dated 2013)
# What was measured:
# [1] = system: rats fed a diet rich in cholesterol; settings: cited from earlier work
# [2] = target: hemoglobin (Homo sapiens, UniProt P68871+P69905); settings: synergistic with 2,3-bisphosphoglycerate; cited from earlier work
# [3] = system: NADPH oxidase (gp91^phox subunit); experiment: S100b-induced NADPH oxidase mRNA expression on THP-1 monocytes (RT-PCR); format: cell-based, human; settings: THP-1, pre-treated 1 hr with 25-200 ug/ml, S100b 4 hr; statistically significant at 100 and 200 ug/ml
# Procedure: (§1) Human THP-1 monocytic cells were obtained from the American Type Culture Collection and cultured as described (27) in RPMI 1640 medium supplemented with 10% fetal calf serum (FCS), glutamine, HEPES, streptomycin/penicillin ([…]/100 units/ml), 50 uM-mercaptoethanol, and 5.5 mM D-glucose in a 5% CO2 incubator at 37° C. THP-1 cells (5×10^5 cells/ml) in 4 ml of medium were pre-treated with various concentrations of LR-90 (0, 25, 50, 100 and 200 ug/ml; prepared in 20 mM stock solution in DMSO) for 1 hr. Control cells received DMSO vehicle only. Thereafter, S100b ([…]) was added and cells re-incubated for 4 hr. The cell suspension was then centrifuged at 200 g, the supernatant was removed and the cell pellet was frozen at −70° C. for subsequent RNA extraction.
# (§2) RNA Extraction and Relative RT-PCR-Total RNA was isolated by the RNA-STAT-60 reagent method (Teltest, Friendswood, Tex.), and […] was used for the RT reaction using a Gene Amp RNA PCR kit. […] PCR products were fractionated on 2.5% agarose gels, photographed using Alpha Imager 2000, and analyzed with Quantity 1 software (Bio-Rad Laboratories, Hercules, Calif.). Results were expressed as fold stimulation over control after normalizing with paired 18S RNA gene.
# (§3) Data Analyses. […] Group comparisons were analyzed using one-way ANOVA and subsequent post-hoc analysis by Tukey's test. […]
# [4] = system: MCP-1; experiment: S100b-induced MCP-1 mRNA expression on THP-1 monocytes (RT-PCR); format: cell-based, human; settings: THP-1, pre-treated 1 hr with 25-200 ug/ml, S100b 4 hr; statistically significant at 100 and 200 ug/ml
# Procedure: as §1, §2, §3
# [5] = system: non-diabetic rats; experiment: Non-diabetic control rats given LR-90 in drinking water for 32 weeks; format: in vivo, rat
# Procedure: (§4) Animal studies were carried out in compliance with policies outlined in “The Guide for the care and Handling of Laboratory Animals” (NIH Publication No. 85-23), which have been approved by the City of Hope National Medical Center Animal Care Committee. Induction of diabetes by STZ and all other procedures were according to the previously published article on LR-90 (25), except that in the present study the diabetic rats under treatment were randomized in 5 groups of ten each: one diabetic control group (0 mg/L), one group receiving 2.5 mg/L, one group receiving 10 mg/L, a third group receiving 20 mg/L and a fourth group receiving 50 mg/L of LR-90 in drinking water (FIG. 1). Both plasma glucose and body weight were checked before administration of the drug, and no differences were detected among the two non-diabetic groups and five diabetic treatment groups. All animals were housed individually and were given free access to food (Purina rodent chow 5001, Ralston Purina, Richmond, Ind., USA) and water. Glycemic control and body weights were monitored periodically. In order to limit hyperglycemia and ensure that animals maintained body weight, diabetic animals received 3 IU of ultralente insulin (Humulin U, Eli Lilly, Indianapolis, Ind., USA) two to three times per week. The study was carried out over 32 weeks.
# (§5) Blood (from the tail vein) and urine samples were collected from rats for glycemic control analysis and albuminuria measurements. Plasma glucose was measured using a glucose analyzer machine (YSI 2300 STAT, Yellowsprings, Ohio, USA). HbAlc concentration was measured by HPLC (BioRad DIAMAT, Hercules, Calif., USA). Total plasma triglycerides and cholesterol concentrations were quantified at the end of the study using the Vitros 250 Chemistry System (Johnson & Johnson, Rochester, N.Y., USA). Progression of renal dysfunction was assessed by measuring urinary albumin-to-creatinine ratio (ACR). Rats were housed in metabolic cages (Nalge, Rochester, N.Y., USA) for 24 hr and urine was collected in a collection beaker with several drops of toluene to inhibit microbial growth. Urinary albumin and creatinine concentrations were quantified immunologically using the Nephrat/Creatinine Companion kits (Exocell), and the ACR value was calculated for each rat.
# At the end of study, the rats were weighed and anaesthetized with isofluorane and blood was drawn by heart puncture and transferred into heparinized and non-heparinized vacutainer tubes on ice. These blood samples were later centifuged for plasma and serum collection respectively, and stored at −70° C. until the time of analysis. […]
# Statistical analyses were performed using Prism software (GraphPad, San Diego, Calif., USA). […] Group comparisons were analyzed using one-way ANOVA and subsequent post-hoc analysis by Tukey's test. […]
# [6] = system: CML-AGE; experiment: Immunohistochemical staining of renal CML-AGE accumulation; format: in vivo, rat; settings: diabetic rats, increasing concentrations; 25 and 50 mg/L best inhibitory effects
# From the text: (§6) Formalin-fixed […] embedded kidney sections ([…]) were mounted on slides and stained with 6D12 monoclonal anti-CML-AGE, polyclonal rabbit anti-RAGE and polyclonal goat anti-nitrotyrosine antibodies as described before (25). […] Similarly, RAGE protein expression in the glomeruli was visibly higher in diabetic rats compared with non-diabetic animals (FIG. 5).
# [7] = system: MCP-1; experiment: Secreted MCP-1 levels of THP-1 cells by ELISA; format: cell-based, human; settings: THP-1 supernatants
# Procedure: Measurement of MCP-1 levels by ELISA. Supernatants of THP-1 cells (5×10^5 cells/ml) cultured in RPMI 1640 medium containing 2% FBS for 18 hrs under control or LR-90 treated conditions were used to assay secreted MCP-1 levels using the Quantikine ELISA kit. Medium alone without cells was incubated under the same conditions and used as blank control for the ELISA.
# Data Analyses. Statistical analyses were performed using Prism software (GraphPad, San Diego, Calif., USA). Unless otherwise indicated, data are presented as Means±Std. Group comparisons were analyzed using one-way ANOVA and subsequent post-hoc analysis by Tukey's test. A P value of less than 0.05 was considered statistically significant.
# [8] = system: THP-1 cells; experiment: Cell viability test on THP-1 cells (cell counter, Trypan Blue); format: cell-based, human
# Procedure: Cell Viability Test—THP-1 cells were seeded onto 6-well plates at a concentration of ˜5×10^5/ml in RPMI medium containing 10% FCS as above, and then incubated with various concentrations of LR-90 or control medium alone for 24 hr at 37° C., 5% CO2. After incubation, overall cell counts were measured using a cell counter (Coulter Z1 Cell and Particle Counter, Beckman Coulter Inc., Fullerton, Calif.), and the number of viable cells determined by hemocytometer counts of Trypan Blue—impermeable cells.
# [9] = system: RAGE; experiment: Immunohistochemical staining of renal RAGE protein expression; format: in vivo, rat; settings: diabetic rats, increasing concentrations; 25 and 50 mg/L best inhibitory effects
# From the text: as §6
# [10] = system: COX-2; experiment: S100b-induced COX-2 mRNA expression on THP-1 monocytes (RT-PCR); format: cell-based, human; settings: THP-1, pre-treated 1 hr with 25-200 ug/ml, S100b 4 hr; statistically significant at 100 and 200 ug/ml
# Procedure: as §1, §2, §3
# [11] = system: STZ-diabetic rats; experiment: Body weight, glycemic control and albuminuria in STZ-induced diabetic rats given LR-90 in drinking water for 32 weeks; format: in vivo, rat
# Procedure: as §4, §5
# (§7) At the end of study, the rats were weighed and anaesthetized with isofluorane and blood was drawn by heart puncture and transferred into heparinized and non-heparinized vacutainer tubes on ice. These blood samples were later centifuged for plasma and serum collection respectively, and stored at −70° C. until the time of analysis. Rats were killed by over-anesthetization and cardiac puncture and the kidneys were removed immediately, weighed, decapsulated and rinsed in PBS buffer. Sections of the kidneys were stored in 10% NBF for subsequent microscopic examinations and immunohistochemistry.
# Statistical analyses were performed using Prism software (GraphPad, San Diego, Calif., USA). Unless otherwise indicated, data are presented as Means±Std. Group comparisons were analyzed using one-way ANOVA and subsequent post-hoc analysis by Tukey's test. A P value of less than 0.05 was considered statistically significant.
# [12] = system: STZ-diabetic rats; experiment: Total plasma triglycerides and cholesterol in STZ-diabetic rats; format: in vivo, rat
# Procedure: Animal studies were carried out in compliance with policies outlined in “The Guide for the care and Handling of Laboratory Animals” (NIH Publication No. 85-23), which have been approved by the City of Hope National Medical Center Animal Care Committee. Induction of diabetes by STZ and all other procedures were according to the previously published article on LR-90 (25), except that in the present study the diabetic rats under treatment were randomized in 5 groups of ten each: one diabetic control group (0 mg/L), […] (FIG. 1). Both plasma glucose and body weight were checked before administration of the drug, and no differences were detected among the two non-diabetic groups and five diabetic treatment groups. All animals were housed individually and were given free access to food (Purina rodent chow 5001, Ralston Purina, Richmond, Ind., USA) and water. Glycemic control and body weights were monitored periodically. In order to limit hyperglycemia and ensure that animals maintained body weight, diabetic animals received 3 IU of ultralente insulin (Humulin U, Eli Lilly, Indianapolis, Ind., USA) two to three times per week. The study was carried out over 32 weeks.
# as §5
# [13] = system: STZ-diabetic rats; experiment: Body weight, glycemic control and albuminuria in STZ-induced diabetic rats given LR-90 in drinking water for 32 weeks; format: in vivo, rat; remark: listed apart in the source
# [14] = system: kidneys of diabetic rats; experiment: Kidney histology (PAS and Trichrome staining) in STZ-diabetic rats; format: in vivo, rat
# Procedure: as §7
# [15] = system: RAGE; experiment: S100b-induced RAGE mRNA expression on THP-1 monocytes (RT-PCR); format: cell-based, human; settings: THP-1, pre-treated 1 hr with 25-200 ug/ml, S100b 4 hr; statistically significant at 100 and 200 ug/ml
# Procedure: as §1, §2, §3
# [16] = non-diabetic rats, 50 mg per liter drinking water daily
# [17] = 2.5 mg per liter drinking water daily
# [18] = 10 mg per liter drinking water daily
# [19] = 50 mg per liter drinking water daily
# [20] = streptozotocin-induced diabetic rats, summary statement
# [21] = 25 mg per liter drinking water daily
# [22] = marked difference at 25 and 50 mg/L
# Chain of hemoglobin (P69905 2-142 limits assumed): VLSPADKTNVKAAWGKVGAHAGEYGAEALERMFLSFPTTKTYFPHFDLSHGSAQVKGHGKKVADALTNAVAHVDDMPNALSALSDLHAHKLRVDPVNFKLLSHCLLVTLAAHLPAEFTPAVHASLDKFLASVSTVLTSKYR
# Chain of hemoglobin (P68871 2-147 limits assumed): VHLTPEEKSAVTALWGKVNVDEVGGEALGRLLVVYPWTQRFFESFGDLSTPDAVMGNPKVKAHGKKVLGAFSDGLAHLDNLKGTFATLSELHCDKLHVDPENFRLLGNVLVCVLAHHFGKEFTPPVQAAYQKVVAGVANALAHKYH
compound,measurement,setting,value
N-4-(nitrophthalimido)phenoxyisobutyric acid [LR-16],low-density lipoproteins (LDL),[1],lower
same,serum cholesterol,[1],lower
same,effect on oxygen affinity of hemoglobin molecules,[2],allosteric effector
CC(C)(Oc1ccc(NC(=O)Nc2ccc(Cc3ccc(NC(=O)Nc4ccc(OC(C)(C)C(=O)O)cc4)c(Cl)c3)cc2Cl)cc1)C(=O)O [LR-90],S100b-induced NADPH oxidase mRNA expression,[3],profoundly suppressed
same,S100b-induced MCP-1 mRNA expression,[4],profoundly suppressed
same,effect on lipid metabolism,[5]; non-diabetic animals,no effect
same,ACR (urinary albumin-to-creatinine ratio),[5]; [16],0.42 ± 0.32 mg/mg
same,HbA1c,[5]; [16],1.2 ± 0.1%
same,Plasma Glucose,[5]; [16],8.9 ± 1.0 mmol/L
same,CML-AGE accumulation in kidney glomeruli and cortical tubules,[6],visibly reduced
same,"MCP-1 protein expression (secreted, ELISA)",[7],inhibited MCP-1 protein expression in a concentration-dependent manner
same,cell viability (Trypan blue staining),[8],viable
same,cell counts after incubation,"[8]; THP-1, same concentrations as in S100b experiments, 24 hr",normal and statistically similar to the untreated cells
same,RAGE protein expression in the glomeruli,[9],visibly reduced
same,S100b-induced COX-2 mRNA expression,[10],profoundly suppressed
same,ACR (urinary albumin-to-creatinine ratio),[11]; [17],2.35 ± 1.96 mg/mg
same,HbA1c,[11]; [17],2.6 ± 0.6 %
same,Plasma Glucose,[11]; [17],29.9 ± 5.9 mmol/L
same,ACR (urinary albumin-to-creatinine ratio),[11]; [18],2.60 ± 1.74 mg/mg
same,HbA1c,[11]; [18],3.0 ± 0.4 %
same,Plasma Glucose,[11]; [18],30.8 ± 2.9 mmol/L
same,HbA1c,[11]; [19],3.0 ± 0.2 %
same,Plasma Glucose,[11]; [19],31.6 ± 3.9 mmol/L
same,ACR (urinary albumin-to-creatinine ratio),"[11]; 50 mg per liter drinking water daily, p < 0.05 vs. diabetic rats",1.39 ± 1.17 mg/mg
same,effect on HbAlc concentration,[11]; various doses,no affect
same,effect on plasma glucose concentration,[11]; various doses,no affect
same,reduction in triglyceride concentration,"[12]; diabetic rats, 25 mg/L",≥ 60%
same,reduction in triglyceride concentration,"[12]; diabetic rats, 50 mg/L",≥ 60%
same,cholesterol concentration relative to non-diabetic animals,"[12]; diabetic rats, all concentrations tested with the exception of 10 mg/L",nearly normalized
same,reduction in triglyceride concentration,"[12]; diabetic rats, lowest concentration (25 mg/L) tested",~50%
same,reduction of increased concentration of cholesterol,[12]; [20],more than 50%
same,reduction of increased concentration of triglycerides,[12]; [20],more than 50%
same,HbA1c,[13]; [21],2.9 ± 0.4 %
same,Plasma Glucose,[13]; [21],26.7 ± 2.4 mmol/L
same,ACR (urinary albumin-to-creatinine ratio),"[13]; 25 mg per liter drinking water daily, p < 0.05 vs. diabetic rats",1.75 ± 1.43 mg/mg
same,rise in ACR,[13]; 25 and 50 mg/L doses statistically significant vs. untreated diabetic animals,inhibited the rise in ACR in almost dose-dependent manner
same,cell infiltration in the renal interstitium,[14],prevented cell infiltration
same,mesangial expansion and basement membrane thickening of the kidneys,[14],prevented mesangial expansion and basement membrane thickening
same,collagen deposition and tubular degeneration in the kidney glomeruli (Trichrome staining),[14]; [22],prevented collagen deposition and tubular degeneration
same,levels of PAS-positive materials in kidney glomeruli,[14]; [22],reduced the levels of PAS-positive materials
same,S100b-induced RAGE mRNA expression,[15],profoundly suppressed
